Assay results: patent publication EP4603105A1, “PHARMACEUTICAL COMPOSITION CONTAINING CYCLIC COMPOUND HAVING SELECTIVE KRAS INHIBITORY EFFECT AGAINST HRAS AND NRAS” (CHUGAI SEIYAKU KABUSHIKI KAISHA, priority 2022, dated 2024)
Read-outs that look alike come from different tables or passages of the source. Where a SMILES comes first, the peptide text is derived from it. Bridges are numbered along the chain shown (N, C = ends). [ ]: non-standard residue; d: D form. The star is where a group is joined. hPhe(3,5-F2-4-CF3) = N[C@@H](CCc1cc(F)c(C(F)(F)F)c(F)c1)C(=O)O; hPhe(3-Cl-4-CF3) = N[C@@H](CCc1ccc(C(F)(F)F)c(Cl)c1)C(=O)O; NPrPhe(4-CF3) = CCCN[C@@H](Cc1ccc(C(F)(F)F)cc1)C(=O)O; NPrPhe(4-Me) = CCCN[C@@H](Cc1ccc(C)cc1)C(=O)O; NMeGly(cPent) = CN[C@H](C(=O)O)C1CCCC1; NMeD = CN[C@@H](CC(=O)O)C(=O)O; NMeL = CN[C@@H](CC(C)C)C(=O)O; NMeS = CN[C@@H](CO)C(=O)O; αMeS = C[C@](N)(CO)C(=O)O; Morpholide = C1CN(*)CCO1; Ac5c = NC1(C(=O)O)CCCC1; Aze = O=C(O)[C@@H]1CCN1; NEtG = CCNCC(=O)O; Sar = CNCC(=O)O

What was measured:
[1] = system: human lung cancer strain NCI-H441; format: cell-based
Procedure, shortened: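 Signal came from […] measured per well once the reagent was added. Beforehand, cells were cultured at 37°C and 5% carbon dioxide on a compound series serially diluted in dimethyl sulfoxide.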

[2] = biological target: GDP-bound NRAS wild-type protein (Homo sapiens, UniProt P01111); assay: Binding to NRAS by surface plasmon resonance (SPR), KD and KD ratio to KRAS
Procedure, shortened: (§1)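 Each cycle, GDP-bound biotin-Avi RAS was captured (~100–300 RU), compound concentrations were injected low to high for 75 s each at 100 µL/min, then the chip was regenerated. Buffer: HBS pH 7.4, 10 mM MgCl2, 10 µM GDP, 1 mM DTT, 4% DMSO; 30°C. KD from a 1:1 binding model.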

HRAS wild-type protein = HRAS wild-type protein (Homo sapiens, UniProt P01112); assay: Binding to HRAS by surface plasmon resonance (SPR), KD and KD ratio to KRAS
Procedure, shortened: as §1

[3] = ratio of KD for GDP-bound NRAS wild-type protein to KD for KRAS
[4] = ratio of KD for HRAS wild-type protein to KD for KRAS
[5] = ratio of the KD value with respect to GDP-bound NRAS wild-type protein to the KD value with respect to KRAS
[6] = ratio of the KD value with respect to HRAS wild-type protein to the KD value with respect to KRAS
[7] = ratio of KD value for GDP-bound NRAS wild-type protein to KD value for KRAS (SPR)
[8] = ratio of KD value for HRAS wild-type protein to KD value for KRAS (SPR)

Chain of HRAS wild-type protein (P01112 whole entry): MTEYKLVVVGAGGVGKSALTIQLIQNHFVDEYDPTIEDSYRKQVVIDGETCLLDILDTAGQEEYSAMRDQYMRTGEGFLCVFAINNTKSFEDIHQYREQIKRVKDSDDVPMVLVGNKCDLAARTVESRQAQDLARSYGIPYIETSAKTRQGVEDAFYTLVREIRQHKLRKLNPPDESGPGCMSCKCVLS
Chain of GDP-bound NRAS wild-type protein (P01111 whole entry): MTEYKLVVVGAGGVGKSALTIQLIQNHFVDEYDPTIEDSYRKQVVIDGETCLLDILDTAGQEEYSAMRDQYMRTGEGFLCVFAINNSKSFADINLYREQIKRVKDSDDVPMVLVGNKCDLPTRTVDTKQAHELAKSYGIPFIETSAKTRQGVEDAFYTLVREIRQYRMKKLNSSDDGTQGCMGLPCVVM

CCCN1C(=O)[C@@H]2CCN2C(=O)CN(C)C(=O)[C@H]([C@@H](C)CC)NC(=O)[C@H](CC(C)C)N(C)C(=O)C[C@@H](C(=O)N2CCOCC2)N(C)C(=O)[C@H](C2CCCC2)N(C)C(=O)[C@](C)(COC)NC(=O)[C@@H]2CCCN2C(=O)[C@H](CCc2cc(F)c(C(F)(F)F)c(F)c2)NC(=O)CN(C)C(=O)[C@@H]1Cc1ccc(C(F)(F)F)cc1 [PP0798] ([NMeL]I[Sar][Aze][NPrPhe(4-CF3)][Sar][hPhe(3,5-F2-4-CF3)]P[αMeS](Me)[NMeGly(cPent)][NMeD]-Morpholide; lactam N-11)
IC50 [1]: 61.5 nM
NRAS /KRAS [2, 3]: C (A compound having a KD ratio of 0.1 or more and less than 3 is denoted as C)
HRAS /KRAS (HRAS wild-type protein; [4]): B (a compound having 3 or more and less than 10 is denoted as B)

CCO[C@@H]1C[C@H]2C(=O)NC3(CCCC3)C(=O)N(C)[C@@H](C3CCCC3)C(=O)N(C)[C@H](C(=O)N(C)C)CC(=O)N(C)[C@@H](CC(C)C)C(=O)N[C@@H]([C@@H](C)CC)C(=O)N(C)CC(=O)N(C)[C@H]3C[C@@H](C)CCN(C3=O)[C@@H](Cc3ccc(C(F)(F)F)cc3)C(=O)N(C)CC(=O)N[C@@H](CCc3cc(F)c(C(F)(F)F)c(F)c3)C(=O)N2C1 [PP1017]
IC50 [1]: 5 nM
NRAS /KRAS [2, 3]: C (A compound having a KD ratio of 0.1 or more and less than 3 is denoted as C)
HRAS /KRAS (HRAS wild-type protein; [4]): B (a compound having 3 or more and less than 10 is denoted as B)

CC[C@H](C)[C@@H]1NC(=O)[C@H](C)N(C)C(=O)C[C@@H](C(=O)N(C)C)N(C)C(=O)[C@H](C2CCCC2)N(C)C(=O)C2(CCC2)NC(=O)[C@@H]2CCCN2C(=O)[C@H](CCc2cc(F)c(C(F)(F)F)c(F)c2)NC(=O)CN(C)C(=O)[C@H](Cc2ccc(C(F)(F)F)cc2)N2CCCC[C@@H](C2=O)N(C)C(=O)CN(C)C1=O [PP0581]
IC50 [1]: 8 nM
NRAS /KRAS [2, 5]: C (A compound having a KD ratio of 0.1 or more and less than 3 is denoted as C)
HRAS /KRAS (HRAS wild-type protein; [6]): B (a compound having 3 or more and less than 10 is denoted as B)

CCC[C@H]1C(=O)N[C@@H]([C@@H](C)CC)C(=O)N(C)CC(=O)N(C)[C@H]2C/C=C\CCN(C2=O)[C@@H](Cc2ccc(C(F)(F)F)cc2)C(=O)N(C)CC(=O)N[C@@H](CCc2cc(F)c(C(F)F)c(OC)c2)C(=O)N2C[C@H](OCC)C[C@H]2C(=O)NC2(CC(C)(C)C2)C(=O)N(C)[C@@H](C2CCCC2)C(=O)N(C)[C@H](C(=O)N(C)C)CC(=O)N1C [PP2867]
IC50 ([1]; NCI-H441 cells, 4 days, CellTiter-Glo, read-out: NCl-H441 IC50): 17.1 nM
NRAS /KRAS [2, 3]: A (a compound having 10 or more and less than 20 is denoted as A)
HRAS /KRAS (HRAS wild-type protein; [4]): A (a compound having 10 or more and less than 20 is denoted as A)

CCO[C@@H]1C[C@H]2C(=O)NC3(CCC3)C(=O)N(C)[C@@H](C3CCCC3)C(=O)N(C)[C@H](C(=O)N(C)C)CC(=O)N(C)[C@@H](CC)C(=O)N[C@@H]([C@@H](C)CC)C(=O)N3CC[C@H]3C(=O)N(C)[C@H]3CC(C)=CCN(C3=O)[C@@H](Cc3ccc(C(F)(F)F)cc3)C(=O)N(C)CC(=O)N[C@@H](CCc3cc(F)c(C(F)(F)F)c(F)c3)C(=O)N2C1 [PP1035]
IC50 [1]: 128 nM
NRAS /KRAS [2, 3]: C (A compound having a KD ratio of 0.1 or more and less than 3 is denoted as C)
HRAS /KRAS (HRAS wild-type protein; [4]): C (A compound having a KD ratio of 0.1 or more and less than 3 is denoted as C)

CCO[C@@H]1C[C@H]2C(=O)NC3(CC(C)(C)C3)C(=O)N(C)[C@@H](C3CCCC3)C(=O)N(C)[C@H](C(=O)N(C)CC)CC(=O)N(C)[C@H]3CCCCCc4ccc(cc4)C[C@@H](C(=O)N(C)CC(=O)N[C@@H](CCc4ccc(C(F)(F)F)c(OC)c4)C(=O)N2C1)N1CC/C=C\C[C@@H](C1=O)N(C)C(=O)CN(C)C(=O)[C@H]([C@@H](C)CC)NC3=O [PP2259]
IC50 [1]: 6.5 nM
NRAS /KRAS [2, 5]: A (a compound having 10 or more and less than 20 is denoted as A)
HRAS /KRAS (HRAS wild-type protein; [6]): B (a compound having 3 or more and less than 10 is denoted as B)

CCCN1C(=O)CN(CC)C(=O)CN(C)C(=O)[C@H]([C@@H](C)CC)NC(=O)[C@H](CC(C)C)N(C)C(=O)C[C@@H](C(=O)N2CCOCC2)N(C)C(=O)[C@H](C2CCCC2)N(C)C(=O)C2(CCCC2)NC(=O)[C@@H]2CCCN2C(=O)[C@H](CCc2ccc(C(F)(F)F)c(Cl)c2)NC(=O)CN(C)C(=O)[C@@H]1Cc1ccc(C)cc1 [PP0065] ([NMeL]I[Sar][NEtG][NPrPhe(4-Me)][Sar][hPhe(3-Cl-4-CF3)]P[Ac5c][NMeGly(cPent)][NMeD]-Morpholide; lactam N-11)
IC50 [1]: 4.3 nM
NRAS /KRAS [2, 3]: C (A compound having a KD ratio of 0.1 or more and less than 3 is denoted as C)
HRAS /KRAS (HRAS wild-type protein; [4]): C (A compound having a KD ratio of 0.1 or more and less than 3 is denoted as C)

CCC[C@H]1C(=O)N[C@@H]([C@@H](C)CC)C(=O)N(C)CC(=O)N(C)[C@H]2C/C=C\CCN(C2=O)[C@@H](Cc2ccc(C)cc2)C(=O)N(C)CC(=O)N[C@@H](CCc2ccc(C(F)(F)F)c(OC)c2)C(=O)N2C[C@H](OCC)C[C@H]2C(=O)NC2(CC(C)(C)C2)C(=O)N(C)[C@@H](C(CC)CC)C(=O)N(C)[C@H](C(=O)N(C)C)CC(=O)N1C [PP2068]
IC50 [1]: 11.1 nM
NRAS /KRAS [2, 5]: A (a compound having 10 or more and less than 20 is denoted as A)
HRAS /KRAS (HRAS wild-type protein; [6]): B (a compound having 3 or more and less than 10 is denoted as B)

CCO[C@@H]1C[C@H]2C(=O)N(C)C3(CC(C)(C)C3)C(=O)N(C)[C@@H](C3CCCC3)C(=O)N(C)[C@H](C(=O)N(C)C)CC(=O)N(C)[C@H]3CCCCCCc4ccc(cc4)C[C@@H](C(=O)N(C)CC(=O)N[C@@H](CCc4ccc(C(F)(F)F)c(OC)c4)C(=O)N2C1)N1CC/C=C\C[C@@H](C1=O)N(C)C(=O)CN(C)C(=O)[C@H]([C@@H](C)CC)NC3=O [PP3090]
IC50 [1]: 1.3 nM
NRAS /KRAS [2, 3]: A (a compound having 10 or more and less than 20 is denoted as A)
HRAS /KRAS (HRAS wild-type protein; [4]): B (a compound having 3 or more and less than 10 is denoted as B)

CCO[C@@H]1C[C@H]2C(=O)NC3(CC(F)(F)C3)C(=O)N(C)[C@@H](C3CCCC3)C(=O)N(C)[C@H](C(=O)N(C)C)CC(=O)N(C)[C@@H](CC3CCC3)C(=O)N[C@@H]([C@@H](C)CC)C(=O)N(C)CC(=O)N(C)[C@H]3C/C=C\CCN(C3=O)[C@@H](Cc3ccc(C(F)(F)F)cc3)C(=O)N(C)CC(=O)N[C@@H](CCc3cc(F)c(C(F)(F)F)c(F)c3)C(=O)N2C1 [PP1742]
IC50 [1]: 1.6 nM
NRAS /KRAS [2, 7]: A (a compound having 10 or more and less than 20 is denoted as A)
HRAS /KRAS (HRAS wild-type protein; [8]): A (a compound having 10 or more and less than 20 is denoted as A)

CCO[C@@H]1C[C@H]2C(=O)NC3(CCC3)C(=O)N(C)[C@@H](C3CCCC3)C(=O)N(C)[C@H](C(=O)N(CC)CC)CC(=O)N(C)[C@@H](CC(C)C)C(=O)N[C@@H]([C@@H](C)CC)C(=O)N(C)CC(=O)N(C)[C@H]3C/C=C\CCN(C3=O)[C@@H](Cc3ccc(C(F)(F)F)cc3)C(=O)N(C)CC(=O)N[C@@H](CCc3cc(F)c(C(F)(F)F)c(F)c3)C(=O)N2C1 [PP1306]
IC50 [1]: 14.7 nM
NRAS /KRAS ([2]; ratio of KD with respect to GDP-bound NRAS wild-type protein to KD with respect to KRAS): AA (a compound having 20 or more is denoted as AA)
HRAS /KRAS (HRAS wild-type protein; ratio of KD with respect to HRAS wild-type protein to KD with respect to KRAS): A (a compound having 10 or more and less than 20 is denoted as A)

CCCOC[C@H]1C(=O)N[C@@H]([C@@H](C)CC)C(=O)N(C)CC(=O)N(C)[C@H]2C/C=C\CCN(C2=O)[C@@H](Cc2ccc(C(F)(F)F)cc2)C(=O)N(C)CC(=O)N[C@@H](CCc2cc(F)c(C(F)(F)F)c(F)c2)C(=O)N2C[C@H](OCC)C[C@H]2C(=O)NC2(CC(C)(C)C2)C(=O)N(C)[C@@H](C2CCCC2)C(=O)N(C)[C@H](C(=O)N(C)CC)CC(=O)N1C [PP1572]
IC50 [1]: 3.6 nM
NRAS /KRAS [2, 7]: A (a compound having 10 or more and less than 20 is denoted as A)
HRAS /KRAS (HRAS wild-type protein; [8]): A (a compound having 10 or more and less than 20 is denoted as A)

CCCN1C(=O)CN(C)C(=O)CN(C)C(=O)[C@H]([C@@H](C)CC)NC(=O)[C@H](CC(C)C)N(C)C(=O)C[C@@H](C(=O)N2CCOCC2)N(C)C(=O)[C@H](C2CCCC2)N(C)C(=O)C2(CCCC2)NC(=O)[C@H](COC)N(C)C(=O)[C@H](CCc2ccc(C(F)(F)F)c(Cl)c2)NC(=O)CN(C)C(=O)[C@@H]1Cc1ccc(C(F)(F)F)cc1 [PP1920] ([NMeL]I[Sar][Sar][NPrPhe(4-CF3)][Sar][hPhe(3-Cl-4-CF3)][NMeS](Me)[Ac5c][NMeGly(cPent)][NMeD]-Morpholide; lactam N-11)
IC50 [1]: 32.4 nM
NRAS /KRAS [2, 5]: B (a compound having 3 or more and less than 10 is denoted as B)
HRAS /KRAS (HRAS wild-type protein; [6]): C (A compound having a KD ratio of 0.1 or more and less than 3 is denoted as C)

CC[C@H](C)[C@@H]1NC(=O)[C@H](CC(C)C)N(C)C(=O)C[C@@H](C(=O)N(C)CC)N(C)C(=O)[C@H](C2CCCC2)N(C)C(=O)C2(CC(C)(C)C2)NC(=O)[C@@H]2C[C@@H](F)CN2C(=O)[C@H](CCc2cc(F)c(C(F)(F)F)c(F)c2)NC(=O)CN(C)C(=O)[C@H](Cc2ccc(C(F)(F)F)cc2)N2CC/C=C\C[C@@H](C2=O)N(C)C(=O)CN(C)C1=O [PP1694]
IC50 [1]: 4.1 nM
NRAS /KRAS [2, 7]: A (a compound having 10 or more and less than 20 is denoted as A)
HRAS /KRAS (HRAS wild-type protein; [8]): A (a compound having 10 or more and less than 20 is denoted as A)
